According to patent publication US11590233B2, “Porphyrin compounds and compositions useful for treating cancer” (OncoSelect Therapeutics, LLC, priority 2016, dated 2023):

What was measured:
[1] = tested on: a cancer cell line; assay: TCPP uptake by a cancer cell treated with different inhibitors of endocytosis (FIG. 3); format: cell-based, human
Text: (§1) Porphyrin tetrakis(4-carboxyphenyl)porphyrin (TCPP) uptake by a panel of human lung cancer cell lines including, HCC15, H157, and H358 were examined using flow cytometry in under varying conditions to manipulate clathrin-dependent and independent endocytosis by chemical inhibitors. […] It has been speculated that preferential porphyrin uptake by cancer cells as compared to non-cancer cells is facilitated by the increased number of LDL receptor (LDLR) on the surface of cancer cells.

[2] = tested on: HCC15, H157 and H358; assay: TCPP uptake in cancer cell lines under sucrose or cold temperature (FIG. 2); format: cell-based, human
Text: as §1

[3] = tested on: lung cancer cells; assay: TCPP uptake in lung cancer cells manipulated to express no LDLR; format: cell-based, human; details: lung cancer cells expressing no LDLR
Text: (§2) Porphyrin tetrakis(4-carboxyphenyl)porphyrin (TCPP) uptake by a panel of human lung cancer cell lines including, HCC15, H157, and H358 were examined using flow cytometry in under varying conditions to manipulate clathrin-dependent and independent endocytosis by chemical inhibitors. Referring now to FIG. 1, TCPP uptake in cancer cells (HCC15) as compared to bone marrow cells in a dose dependent manner is illustrated. Similar results are observed with mouse normal lung cells as is shown for bone marrow cells. The uptake of TCPP by HCC15 is greater than 2-fold at 10 ug/ml as compared to the non-cancer cells. […] Chlorpromazine, an antagonist of clathrin-mediated endocytosis, inhibited TCPP uptake in a cancer cell line by up to 80% as is illustrated in FIG. 3. In contrast, the clathrin-independent endocytosis inhibitor filipin had no effect on TCPP uptake. It has been speculated that preferential porphyrin uptake by cancer cells as compared to non-cancer cells is facilitated by the increased number of LDL receptor (LDLR) on the surface of cancer cells. To examine LDLR contribution on TCPP uptake, lung cancer cells were manipulated to express no LDLR, which reduced TCPP uptake by only 20%.

[4] = tested on: human fibroblasts without functional LDLR; assay: TCPP uptake in human fibroblasts without functional LDLR; format: cell-based
[5] = tested on: HCC15; assay: TCPP uptake in cancer cells vs non-cancer cells by flow cytometry; format: cell-based, human; details: 10 ug/ml, HCC15 vs bone marrow cells
Text: as §2

CN(C)CCCN1c2ccccc2Sc2ccc(Cl)cc21 [Chlorpromazine]
inhibition of TCPP uptake ([1]; antagonist of clathrin-mediated endocytosis, a cancer cell line): up to 80%

O=C(O)c1ccc(-c2c3nc(c(-c4ccc(C(=O)O)cc4)c4ccc([nH]4)c(-c4ccc(C(=O)O)cc4)c4nc(c(-c5ccc(C(=O)O)cc5)c5ccc2[nH]5)C=C4)C=C3)cc1 [TCPP, tetrakis(4-carboxyphenyl)porphyrin]
inhibition of TCPP uptake by cold temperature ([2]; cold temperature): nearly completely inhibited
reduction of TCPP uptake [3]: 20%
inhibition of TCPP uptake [4]: no inhibition
uptake of TCPP by HCC15 as compared to the non-cancer cells [5]: greater than 2 fold

CCCCC[C@@H](O)[C@H]1C(=O)O[C@H](C)[C@@H](O)/C=C/C=C/C=C/C=C/C=C(\C)[C@@H](O)C[C@H](O)C[C@H](O)C[C@H](O)C[C@H](O)C[C@H](O)C[C@@H]1O [filipin]
effect on TCPP uptake ([1]; clathrin-independent endocytosis inhibitor): no effect

OC[C@H]1O[C@@](CO)(O[C@H]2O[C@H](CO)[C@@H](O)[C@H](O)[C@H]2O)[C@@H](O)[C@@H]1O [sucrose]
inhibition of TCPP uptake by sucrose ([2]; flow cytometry): moderately inhibited
